Consider two compounds from patent publication US4873347A, “Process for the preparation of the demalonyl compound of macrolide lactones” (Hoechst Aktiengesellschaft, priority 1986, dated 1989).

What all share (type): cell-based
The test system of test [1] is Candida albicans. Briefly: in vitro serial dilution test for antimycotic action (microtitration technique), yeast. As to conditions: read-out: Minimum inhibitory concentration for Candida albicans. As for the experimental part:
(§1) The in vitro tests for an antimycotic action are carried out in serial dilution tests on yeasts (Candida albicans) and molds (Aspergillus niger) [Material and Methods: Microtitration technique published in Mykosen 27, 14 (1984)].

The test system of test [2] is Aspergillus niger. Briefly: in vitro serial dilution test for antimycotic action (microtitration technique), mold. The note with it: read-out: Minimum inhibitory concentration for Aspergillus niger. As for the experimental part: as §1
The test system of test [3] is yeasts (Candida albicans) and molds (Aspergillus niger). The test can be described thus: in vitro tests for an antimycotic action in serial dilution, overall result in words. The note with it: compared with reference substance niphimycin. As for the experimental part: as §1

≈ marks a conversion by molar mass, not a printed value.

As for `CNC(=N)NCCCC=CCCCC(C)CC(C)C1OC(=O)C(C)C(O)C=CC(C)C(O)CC(O)C(C)C(O)CCC(C)C(O)CC2(O)OC(CC(O)CC(O)CC(O)C(C)C(O)C=CC=CC1C)CC(O)C2O` (centres unmarked) [Demalonyl compound], the MIC in test [1] came to 3.9 µg/mL (≈ 3.69 µM); in test [2], 1.95 µg/mL (≈ 1.85 µM). Besides, the antimycotic properties entry in test [3] is given as “good antimycotic properties which are superior to those of the reference substance niphimycin”.
For `CNC(=N)NCCCC=CCCCC(C)CC(C)C1OC(=O)C(C)C(O)C=CC(C)C(O)CC(O)C(C)C(O)CCC(C)C(O)CC2(O)OC(CC(OC(=O)CC(=O)O)CC(O)CC(O)C(C)C(O)C=CC=CC1C)CC(O)C2O` (centres unmarked) [Niphimycin, reference compound], the MIC in test [1] amounted to 7.8 µg/mL (≈ 6.83 µM); in test [2], 3.9 µg/mL (≈ 3.41 µM).
